In patent US12577234B2, “Antagonists of the muscarinic acetylcholine receptor M4” (Vanderbilt University, priority 2017, dated 2026):

Target: T1, human mAChR M4 (Homo sapiens, UniProt P08173)
T1 construct: expressed in transfected cells; host or cells: CHO-K1 (ATCC), stably co-expressing chimeric G protein Gqi5
T1 sequence (P08173 1-479): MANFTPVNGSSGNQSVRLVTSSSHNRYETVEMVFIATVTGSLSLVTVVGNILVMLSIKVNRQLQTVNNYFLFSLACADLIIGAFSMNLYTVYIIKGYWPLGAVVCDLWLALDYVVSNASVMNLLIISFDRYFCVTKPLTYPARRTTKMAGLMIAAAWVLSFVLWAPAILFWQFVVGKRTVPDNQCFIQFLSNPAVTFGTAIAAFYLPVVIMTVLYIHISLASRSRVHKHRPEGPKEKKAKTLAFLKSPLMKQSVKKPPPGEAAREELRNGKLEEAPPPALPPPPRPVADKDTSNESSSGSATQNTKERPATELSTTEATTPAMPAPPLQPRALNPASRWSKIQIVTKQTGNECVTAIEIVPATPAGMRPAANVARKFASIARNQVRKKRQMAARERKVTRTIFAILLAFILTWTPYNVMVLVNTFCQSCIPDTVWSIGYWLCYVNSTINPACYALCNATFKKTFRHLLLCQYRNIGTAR
Test: mAChR M4 cell-based functional assay (calcium mobilization, EC80 acetylcholine), human M4
Conditions: for IC50: M4/Gqi5/CHO-K1 cells, decrease of EC80 acetylcholine response; for Emin: human M4, % ACh maximum at 30 μM
In short: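 CHO-K1 cells stably expressing human M4 with chimeric Gqi5; intracellular calcium rise read on FDSS as fluorescence static ratio at 1 Hz. Compounds in 10-point 1:3 dilution series; IC50 taken as concentration-dependent decrease of the EC80 acetylcholine response, four-parameter logistic fit.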

Row | SMILES | IC50 (Table 9) [nM] | Emin (Table 9) [%] | Human M4 Emin (Table 10) [%] | IC50 (Table 10) [nM]
1 | Cc1nn(C)cc1-c1ccc(O[C@@H]2C[C@@H]3CN(CC4CCCOC4)C[C@@H]3C2)nn1 (stereo partly drawn) [Compound 51, (3aR,5r,6aS)-5-[6-(1,3-dimethylpyrazol-4-yl)pyridazin-3-yl]oxy-2-(tetrahydropyran-3-ylmethyl)-3,3a,4,5,6,6a-hexahydro-1H-cyclopenta[c]pyrrole] | 7850 | 19.8 | – | –
2 | Fc1ccc(Cl)c(-c2ccc(N[C@H]3C[C@@H]4CN(Cc5ccncc5)C[C@@H]4C3)nn2)c1 [Compound 162, (3aR,5s,6aS)-N-[6-(2-chloro-5-fluoro-phenyl)pyridazin-3-yl]-2-(4-pyridylmethyl)-3,3a,4,5,6,6a-hexahydro-1H-cyclopenta[c]pyrrol-5-amine] | – | – | 3 | 4.52
3 | CC(C)(O)c1cccc(-c2ccc(N[C@H]3C[C@@H]4CN(CC5CCOCC5)C[C@@H]4C3)nn2)c1 [Compound 216, 2-[3-[6-[[(3aR,5s,6aS)-2-(tetrahydropyran-4-ylmethyl)-3,3a,4,5,6,6a-hexahydro-1H-cyclopenta[c]pyrrol-5-yl]amino]pyridazin-3-yl]phenyl]propan-2-ol] | – | – | 16 | 21.3
4 | c1cn2cc(-c3ccc(N[C@H]4C[C@@H]5CN(CC6CCOCC6)C[C@@H]5C4)nn3)ccc2n1 [Compound 183, (3aR,5s,6aS)-N-(6-imidazo[1,2-a]pyridin-6-ylpyridazin-3-yl)-2-(tetrahydropyran-4-ylmethyl)-3,3a,4,5,6,6a-hexahydro-1H-cyclopenta[c]pyrrol-5-amine] | – | – | 7 | 1.07
5 | Fc1ccccc1-c1ccc(N[C@H]2C[C@@H]3CN(CC4CCOCC4)C[C@@H]3C2)nn1 [Compound 185, (3aR,5s,6aS)-N-[6-(2-fluorophenyl)pyridazin-3-yl]-2-(tetrahydropyran-4-ylmethyl)-3,3a,4,5,6,6a-hexahydro-1H-cyclopenta[c]pyrrol-5-amine] | – | – | 4 | 0.667
6 | Cc1cnn(C)c1-c1ccc(OCC2C[C@@H]3CN(Cc4ccccc4)C[C@@H]3C2)nn1 (stereo partly drawn) [Compound 86, (3aR,6aS)-2-benzyl-5-[[6-(2,4-dimethylpyrazol-3-yl)pyridazin-3-yl]oxymethyl]-3,3a,4,5,6,6a-hexahydro-1H-cyclopenta[c]pyrrole] | 2860 | 9.09 | – | –
7 | COc1ccccc1-c1ccc(N[C@H]2C[C@@H]3CN(CC4CCOCC4)C[C@@H]3C2)nn1 [Compound 199, (3aR,5s,6aS)-N-[6-(2-methoxyphenyl)pyridazin-3-yl]-2-(tetrahydropyran-4-ylmethyl)-3,3a,4,5,6,6a-hexahydro-1H-cyclopenta[c]pyrrol-5-amine] | – | – | 5 | 0.579
8 | c1cc(N2CCOCC2)nnc1N[C@H]1C[C@@H]2CN(CC3CCOCC3)C[C@@H]2C1 [Compound 191, (3aR,5s,6aS)-N-(6-morpholinopyridazin-3-yl)-2-(tetrahydropyran-4-ylmethyl)-3,3a,4,5,6,6a-hexahydro-1H-cyclopenta[c]pyrrol-5-amine] | – | – | 5 | 13.4
9 | CCCC(C)CN1C[C@H]2CC(COc3ccc(-c4cn(C)nc4C)nn3)C[C@H]2C1 (stereo partly drawn) [Compound 96, (3aR,6aS)-5-[[6-(1,3-dimethylpyrazol-4-yl)pyridazin-3-yl]oxymethyl]-2-(2-methylpentyl)-3,3a,4,5,6,6a-hexahydro-1H-cyclopenta[c]pyrrole] | 301 | 4.62 | – | –
10 | Cc1nn(C)cc1-c1ccc(OCC2C[C@@H]3CN(CC4CCOCC4)C[C@@H]3C2)nn1 (stereo partly drawn) [Compound 98, (3aR,6aS)-5-[[6-(1,3-dimethylpyrazol-4-yl)pyridazin-3-yl]oxymethyl]-2-(tetrahydropyran-4-ylmethyl)-3,3a,4,5,6,6a-hexahydro-1H-cyclopenta[c]pyrrole] | 2230 | 8.70 | – | –
11 | Cc1cnn(C)c1-c1ccc(OCC2C[C@@H]3CN(CC4CCOCC4)C[C@@H]3C2)nn1 (stereo partly drawn) [Compound 84, (3aR,6aS)-5-[[6-(2,4-dimethylpyrazol-3-yl)pyridazin-3-yl]oxymethyl]-2-(tetrahydropyran-4-ylmethyl)-3,3a,4,5,6,6a-hexahydro-1H-cyclopenta[c]pyrrole] | 3090 | 10.9 | – | –
12 | FC1(F)CCN(c2ccc(N[C@H]3C[C@@H]4CN(CC5CCOCC5)C[C@@H]4C3)nn2)C1 [Compound 189, (3aR,5s,6aS)-N-[6-(3,3-difluoropyrrolidin-1-yl)pyridazin-3-yl]-2-(tetrahydropyran-4-ylmethyl)-3,3a,4,5,6,6a-hexahydro-1H-cyclopenta[c]pyrrol-5-amine] | – | – | 8 | 2.07
13 | CCCC(C)CN1C[C@H]2C[C@H](Nc3ccc(-c4cn(C)nc4C)nn3)C[C@H]2C1 (some centres unmarked) [compound 14] | 4.8 | – | – | –
14 | Cc1nn(C)cc1-c1ccc(N[C@@H]2C[C@@H]3CN(CC45CC6CC(CC(C6)C4)C5)C[C@@H]3C2)c(F)c1F [Compound 45, (3aR,5r,6aS)-2-(1-adamantylmethyl)-N-[4-(1,3-dimethylpyrazol-4-yl)-2,3-difluoro-phenyl]-3,3a,4,5,6,6a-hexahydro-1H-cyclopenta[c]pyrrol-5-amine] | 6590 | 12.0 | – | –
15 | Cc1nn(C)cc1-c1ccc(NC[C@H]2C[C@@H]3CN(CC4CCCCC4)C[C@@H]3C2)nn1 [Compound 72, N-[[(3aR,5s,6aS)-2-(cyclohexylmethyl)-3,3a,4,5,6,6a-hexahydro-1H-cyclopenta[c]pyrrol-5-yl]methyl]-6-(1,3-dimethylpyrazol-4-yl)pyridazin-3-amine] | 201 | 4.02 | – | –
16 | CC1(C)CC(CN2C[C@H]3C[C@H](Nc4ccc(-c5cc(F)ccc5Cl)nn4)C[C@H]3C2)CCO1 (stereo partly drawn) [Compound 173, (3aR,5s,6aS)-N-[6-(2-chloro-5-fluoro-phenyl)pyridazin-3-yl]-2-[(2,2-dimethyltetrahydropyran-4-yl)methyl]-3,3a,4,5,6,6a-hexahydro-1H-cyclopenta[c]pyrrol-5-amine] | – | – | 3 | 3.32
17 | CC(=O)Nc1ccc(-c2ccc(O[C@H]3C[C@@H]4CN(CC5CCCCC5)C[C@@H]4C3)nn2)cc1 [Compound 130, N-[4-[6-[[(3aR,5s,6aS)-2-(cyclohexylmethyl)-3,3a,4,5,6,6a-hexahydro-1H-cyclopenta[c]pyrrol-5-yl]oxy]pyridazin-3-yl]phenyl]acetamide] | – | – | 3 | 58.3
18 | Fc1ccc(Cl)c(-c2ccc(NC[C@H]3C[C@@H]4CN(CC5CCOCC5)C[C@@H]4C3)nn2)c1 [Compound 71, N-[[(3aR,5s,6aS)-2-(tetrahydropyran-4-ylmethyl)-3,3a,4,5,6,6a-hexahydro-1H-cyclopenta[c]pyrrol-5-yl]methyl]-6-(2-chloro-5-fluoro-phenyl)pyridazin-3-amine] | 364 | 3.81 | – | –
19 | Cc1nn(C)cc1-c1ccc(OCC2C[C@@H]3CN(Cc4ccc(F)cc4)C[C@@H]3C2)nn1 (stereo partly drawn) [Compound 102, (3aR,6aS)-5-[[6-(1,3-dimethylpyrazol-4-yl)pyridazin-3-yl]oxymethyl]-2-[(4-fluorophenyl)methyl]-3,3a,4,5,6,6a-hexahydro-1H-cyclopenta[c]pyrrole] | 2580 | 6.62 | – | –
20 | Cc1cnn(C)c1-c1ccc(NC[C@H]2C[C@@H]3CN(CCC(C)(C)C)C[C@@H]3C2)nn1 [Compound 61, N-[[(3aR,5s,6aS)-2-(3,3-Dimethylbutyl)-3,3a,4,5,6,6a-hexahydro-1H-cyclopenta[c]pyrrol-5-yl]methyl]-6-(2,4-dimethylpyrazol-3-yl)pyridazin-3-amine] | 35.6 | 3.12 | – | –
21 | Fc1ccc(Cl)c(-c2ccc(OCC3C[C@@H]4CN(CC5CCCOC5)C[C@@H]4C3)nn2)c1 (stereo partly drawn) [Compound 113, (3aR,6aS)-5-[[6-(2-chloro-5-fluoro-phenyl)pyridazin-3-yl]oxymethyl]-2-(tetrahydropyran-3-ylmethyl)-3,3a,4,5,6,6a-hexahydro-1H-cyclopenta[c]pyrrole] | 860 | 4.76 | – | –
22 | CC(C)(C)CCN1C[C@H]2C[C@H](Nc3ccc(N4CCOCC4)nn3)C[C@H]2C1 [Compound 143, (3aR,5s,6aS)-2-(3,3-dimethylbutyl)-N-(6-morpholinopyridazin-3-yl)-3,3a,4,5,6,6a-hexahydro-1H-cyclopenta[c]pyrrol-5-amine] | – | – | 6 | 5020
23 | Cc1cnn(C)c1-c1ccc(NCCC2C[C@@H]3CN(CCC(C)(C)C)C[C@@H]3C2)nn1 (stereo partly drawn) [Compound 120, 6-(1,4-Dimethyl-1H-pyrazol-5-yl)-N-(2-((3aR,6aS)-2-(3,3-dimethylbutyl)octahydrocyclopenta[c]pyrrol-5-yl)ethyl)pyridazin-3-amine] | 2 | 3.48 | – | –
24 | Fc1ccc(Cl)c(-c2ccc(OCC3C[C@@H]4CN(CC5CCCCC5)C[C@@H]4C3)nn2)c1 (stereo partly drawn) [Compound 111, (3aR,6aS)-5-[[6-(2-chloro-5-fluoro-phenyl)pyridazin-3-yl]oxymethyl]-2-(cyclohexylmethyl)-3,3a,4,5,6,6a-hexahydro-1H-cyclopenta[c]pyrrole] | 443 | 3.62 | – | –
